# Key:
# CCRF-CEM = assay: NCI SRB cytotoxicity, leukemia CCRF-CEM; assay type: cell-based; conditions: Homo sapiens, 48 h exposure
# Method: (§1) The pyrazolochalcones (7e, 8e, 10e, 11e, 12e, 13e and 8f) have been tested against fifty nine human tumor cell lines derived from nine cancer types (leukemia, non-small cell lung cancer, colon cancer, CNS cancer, melanoma, ovarian cancer, renal cancer, prostate cancer and breast cancer) as per the NCI protocol. For each compound, dose response curves for individual cell lines have been measured at a minimum of five concentrations at 10 fold dilutions. A protocol of 48 h continuous drug exposure has been used, and a sulforhodamine B (SRB) protein assay has been used to estimate cell viability or growth. The concentration for 50% cell growth inhibition (GI50), 50% cell death (LC50, 50% growth) and total cell growth inhibition (TGI, 0% growth) values were tabulated (Table-1). DMSO was used as control to calculate the values of GI50, LC50 and TGI. The compounds 7e, 8e, 10e, 11e, 12e, 13e and 8f has been evaluated for their in vitro cytotoxicity in […] cell lines from nine human cancer types of leukemia (K-562, SR), non-small cell lung (Hop-62, NCI-H226, NCI-H522), colon (HCT-116, HCT-15, HCC-2998), CNS (SF-539), melanoma (SK-MEL-5, UACC-62, M14), ovarian (IGROV1), renal (A498), prostate (PC3) and breast (BT-549, MDA-MB-435, HS578T) origin. The results are expressed as percent of cell growth determined relative to that of untreated control cells (Table 2).
# HL-60(TB) = assay: NCI SRB cytotoxicity, leukemia HL-60(TB); assay type: cell-based; conditions: Homo sapiens, 48 h exposure
# Method: as §1
# MOLT-4 = assay: NCI SRB cytotoxicity, leukemia MOLT-4; assay type: cell-based; conditions: Homo sapiens, 48 h exposure
# Method: as §1
# A549/ATCC = assay: NCI SRB cytotoxicity, non-small cell lung A549/ATCC; assay type: cell-based; conditions: Homo sapiens, 48 h exposure
# Method: as §1
# NCI-H226 = assay: NCI SRB cytotoxicity, non-small cell lung NCI-H226; assay type: cell-based; conditions: Homo sapiens, 48 h exposure
# Method: as §1
# NCIH322M = assay: NCI SRB cytotoxicity, non-small cell lung NCIH322M; assay type: cell-based; conditions: Homo sapiens, NCI-H322M, 48 h exposure
# Method: as §1
# NCI-H522 = assay: NCI SRB cytotoxicity, non-small cell lung NCI-H522; assay type: cell-based; conditions: Homo sapiens, 48 h exposure
# Method: as §1
# COLO-205 = assay: NCI SRB cytotoxicity, colon COLO-205; assay type: cell-based; conditions: Homo sapiens, 48 h exposure
# Method: as §1
# HCT-116 = assay: NCI SRB cytotoxicity, colon HCT-116; assay type: cell-based; conditions: Homo sapiens, 48 h exposure
# Method: as §1
# HT29 = assay: NCI SRB cytotoxicity, colon HT29; assay type: cell-based; conditions: Homo sapiens, HT-29, 48 h exposure
# Method: as §1
# SW-620 = assay: NCI SRB cytotoxicity, colon SW-620; assay type: cell-based; conditions: Homo sapiens, 48 h exposure
# Method: as §1
# SF-268 = assay: NCI SRB cytotoxicity, CNS SF-268; assay type: cell-based; conditions: Homo sapiens, 48 h exposure
# Method: as §1
# SF-539 = assay: NCI SRB cytotoxicity, CNS SF-539; assay type: cell-based; conditions: Homo sapiens, 48 h exposure
# Method: as §1
# SNB-19 = assay: NCI SRB cytotoxicity, CNS SNB-19; assay type: cell-based; conditions: Homo sapiens, 48 h exposure
# Method: as §1
# LOX IMVI = assay: NCI SRB cytotoxicity, melanoma LOX IMVI; assay type: cell-based; conditions: Homo sapiens, 48 h exposure
# Method: as §1
# MALME-3M = assay: NCI SRB cytotoxicity, melanoma MALME-3M; assay type: cell-based; conditions: Homo sapiens, 48 h exposure
# Method: as §1
# M14 = assay: NCI SRB cytotoxicity, melanoma M14; assay type: cell-based; conditions: Homo sapiens, 48 h exposure
# Method: as §1
# SK-MEL-28 = assay: NCI SRB cytotoxicity, melanoma SK-MEL-28; assay type: cell-based; conditions: Homo sapiens, 48 h exposure
# Method: as §1
# SK-MEL-5 = assay: NCI SRB cytotoxicity, melanoma SK-MEL-5; assay type: cell-based; conditions: Homo sapiens, 48 h exposure
# Method: as §1
# UACC-62 = assay: NCI SRB cytotoxicity, melanoma UACC-62; assay type: cell-based; conditions: Homo sapiens, 48 h exposure
# Method: as §1
# OVCAR-3 = assay: NCI SRB cytotoxicity, ovarian OVCAR-3; assay type: cell-based; conditions: Homo sapiens, 48 h exposure
# Method: as §1
# NCI/ADR-RES = assay: NCI SRB cytotoxicity, ovarian NCI/ADR-RES; assay type: cell-based; conditions: Homo sapiens, 48 h exposure
# Method: as §1
# A498 = assay: NCI SRB cytotoxicity, renal A498; assay type: cell-based; conditions: Homo sapiens, 48 h exposure
# Method: as §1
# ACHN = assay: NCI SRB cytotoxicity, renal ACHN; assay type: cell-based; conditions: Homo sapiens, 48 h exposure
# Method: as §1
# CAKI-1 = assay: NCI SRB cytotoxicity, renal CAKI-1; assay type: cell-based; conditions: Homo sapiens, 48 h exposure
# Method: as §1
# RXF 393 = assay: NCI SRB cytotoxicity, renal RXF 393; assay type: cell-based; conditions: Homo sapiens, 48 h exposure
# Method: as §1
# SN12C = assay: NCI SRB cytotoxicity, renal SN12C; assay type: cell-based; conditions: Homo sapiens, 48 h exposure
# Method: as §1
# TK-10 = assay: NCI SRB cytotoxicity, renal TK-10; assay type: cell-based; conditions: Homo sapiens, 48 h exposure
# Method: as §1
# UO-31 = assay: NCI SRB cytotoxicity, renal UO-31; assay type: cell-based; conditions: Homo sapiens, 48 h exposure
# Method: as §1
# PC-3 = assay: NCI SRB cytotoxicity, prostate PC-3; assay type: cell-based; conditions: Homo sapiens, 48 h exposure
# Method: as §1
# BT-549 = assay: NCI SRB cytotoxicity, breast BT-549; assay type: cell-based; conditions: Homo sapiens, 48 h exposure
# Method: as §1
# T-47D = assay: NCI SRB cytotoxicity, breast T-47D; assay type: cell-based; conditions: Homo sapiens, T47D, 48 h exposure
# Method: as §1
# Leukemia = assay: NCI SRB cytotoxicity, leukemia panel average; assay type: cell-based, human; conditions: average of cell lines
# Method: as §1
# (§2) Each cancer type represents the average of six to eight different cancer cell lines.
# Colon = assay: NCI SRB cytotoxicity, colon panel average; assay type: cell-based, human; conditions: average of cell lines
# Method: as §1, §2
# CNS = assay: NCI SRB cytotoxicity, CNS panel average; assay type: cell-based, human; conditions: average of cell lines
# Method: as §1, §2
# Melanoma = assay: NCI SRB cytotoxicity, melanoma panel average; assay type: cell-based, human; conditions: average of cell lines
# Method: as §1, §2
# Ovarian = assay: NCI SRB cytotoxicity, ovarian panel average; assay type: cell-based, human; conditions: average of cell lines
# Method: as §1, §2
# Prostate = assay: NCI SRB cytotoxicity, prostate panel average; assay type: cell-based, human; conditions: average of cell lines
# Method: as §1, §2
# Breast = assay: NCI SRB cytotoxicity, breast panel average; assay type: cell-based, human; conditions: average of cell lines
# Method: as §1, §2
# [1] = Homo sapiens, read-out: Log10 LC50 (concentration in mol/L causing 50% cell death) (converted)
smiles,measurement,setting,value
"COc1cc(-c2cc(/C=C/C(=O)c3ccc4c(c3)OCO4)[nH]n2)cc(OC)c1OC [11e, (E)-1-(benzo[d][1,3]dioxol-5-yl)-3-(3-(3,4,5-trimethoxyphenyl)-1H-pyrazol-5-yl)prop-2-en-1-one]",GI50,CCRF-CEM,1570 nM
same,GI50,HL-60(TB),2170 nM
same,GI50,MOLT-4,2980 nM
same,GI50,A549/ATCC,4.32 µM
same,GI50,NCI-H226,3.31 µM
same,GI50,NCIH322M,3.01 µM
same,GI50,NCI-H522,1030 nM
same,GI50,COLO-205,1870 nM
same,GI50,HCT-116,1850 nM
same,GI50,HT29,2180 nM
same,GI50,SW-620,2470 nM
same,GI50,SF-268,2970 nM
same,GI50,SF-539,2070 nM
same,GI50,SNB-19,4.3 µM
same,GI50,LOX IMVI,1820 nM
same,GI50,MALME-3M,4.42 µM
same,GI50,M14,3.86 µM
same,GI50,SK-MEL-28,2480 nM
same,GI50,SK-MEL-5,4.51 µM
same,GI50,UACC-62,4.67 µM
same,GI50,OVCAR-3,3.38 µM
same,GI50,NCI/ADR-RES,4.23 µM
same,GI50,A498,2760 nM
same,GI50,ACHN,1880 nM
same,GI50,CAKI-1,5.51 µM
same,GI50,RXF 393,1480 nM
same,GI50,SN12C,3.94 µM
same,GI50,TK-10,2330 nM
same,GI50,UO-31,1910 nM
same,GI50,PC-3,2810 nM
same,GI50,BT-549,2370 nM
same,GI50,T-47D,2510 nM
same,CC50,Leukemia; [1],0.0001 mol/L
same,Log10 GI50 (concentration in mol/L causing 50% growth inhibition),Leukemia,−4.91 mol/L
same,Log10 TGI (concentration in mol/L causing total growth inhibition (0% growth)),Leukemia,−5.00 mol/L
same,LC50,Colon; [1],21.9 µM
same,Log10 GI50 (concentration in mol/L causing 50% growth inhibition),Colon,−4.66 mol/L
same,Log10 TGI (concentration in mol/L causing total growth inhibition),Colon,−5.33 mol/L
same,LC50,CNS; [1],63.1 µM
same,Log10 GI50 (concentration in mol/L causing 50% growth inhibition),CNS,−4.2 mol/L
same,Log10 TGI (concentration in mol/L causing total growth inhibition (0% growth)),CNS,−4.83 mol/L
same,LC50,Melanoma; [1],72.4 µM
same,Log10 GI50 (concentration in mol/L causing 50% growth inhibition),Melanoma,−4.14 mol/L
same,Log10 TGI (concentration in mol/L causing total growth inhibition),Melanoma,−4.52 mol/L
same,CC50,Ovarian; [1],0.0001 mol/L
same,Log10 GI50 (concentration in mol/L causing 50% growth inhibition),Ovarian,−4 mol/L
same,Log10 TGI (concentration in mol/L causing total growth inhibition (0% growth)),Ovarian,−4.38 mol/L
same,CC50,Prostate; [1],0.0001 mol/L
same,Log10 GI50 (concentration in mol/L causing 50% growth inhibition),Prostate,−4 mol/L
same,Log10 TGI (concentration in mol/L causing total growth inhibition (0% growth)),Prostate,−4.94 mol/L
same,CC50,Breast; [1],0.000295 mol/L
same,Log10 GI50 (concentration in mol/L causing 50% growth inhibition),Breast,−3.53 mol/L
same,Log10 TGI (concentration in mol/L causing total growth inhibition (0% growth)),Breast,−4.60 mol/L
